Data as given in US20170356900A1, “TOXICANT ASSAYS FOR COSMETIC PRODUCTS” (priority 2016, published 2017).

System: zebrafish (Danio rerio) AB strain embryos
Assay: Acute toxicity testing using zebrafish embryos (mortality after 48 hr exposure)
Type: in vivo
Conditions: positive control, 3.7 mg/L; 48 hr exposure at 26° C.
Description: Extracts prepared as described in Example 1 were tested for acute toxicity using zebrafish (Danio rerio) AB strain embryos. BB cream extracts were diluted into zebrafish embryo culture medium at nominal concentrations of 0.3, 0.6, 1.4, 3.0 and 6.7 g/L. Zebrafish AB strain embryos of 4-128 cell stages were exposed to extract dilutions in a 96-well plate at 1 embryo per well. Each concentration was tested with 20 embryos. Zebrafish embryo culture medium and 3.7 mg/L dichloroaniline were included as negative and positive controls, respectively. After 48 hr exposure at 26° C., zebrafish embryos were observed under a stereomicroscope and fish embryos that were coagulated, tail not detached, and having no heart beat were marked as dead. Mortality rate for each concentration was calculated as the acute toxicity endpoint. The mortality rate for the negative control was 0% and for the positive control was 30%. […] Of the three BB cream extracts, brand C was the most toxic and brand B was the least toxic to zebrafish embryos.

**Q.** With `Nc1ccc(Cl)c(Cl)c1` [dichloroaniline] as the molecule, how does the mortality rate read?
**A.** 30%
